What follows are compounds tested against Isocitrate dehydrogenase [NADP] cytoplasmic (Homo sapiens, UniProt O75874, R132H) (assay: Inhibition of IDH1 R132H mutant using alpha-ketoglutarate as substrate after 60 mins by resazurin-based fluorimetric analysis).
Chain of Isocitrate dehydrogenase [NADP] cytoplasmic (O75874 2-414 R132H limits assumed): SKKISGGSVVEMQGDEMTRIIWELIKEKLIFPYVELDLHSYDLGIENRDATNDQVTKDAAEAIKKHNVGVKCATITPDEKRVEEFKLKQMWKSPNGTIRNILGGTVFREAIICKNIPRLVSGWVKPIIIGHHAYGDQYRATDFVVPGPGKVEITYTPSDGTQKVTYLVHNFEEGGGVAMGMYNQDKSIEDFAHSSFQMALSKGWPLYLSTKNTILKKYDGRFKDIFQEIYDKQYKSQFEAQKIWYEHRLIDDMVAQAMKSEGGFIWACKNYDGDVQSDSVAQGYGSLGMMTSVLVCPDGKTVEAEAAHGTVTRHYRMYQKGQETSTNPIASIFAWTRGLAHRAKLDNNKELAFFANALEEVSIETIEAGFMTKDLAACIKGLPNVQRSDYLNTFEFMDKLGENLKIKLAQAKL

Row | IC50 [µM] | SMILES
1 | 0.42 | Cc1ccccc1C(C(=O)NC1CCCCC1)N(C(=O)Cn1cccn1)c1cccc(F)c1 (racemic)
2 | 0.14 | Cc1ccccc1C(C(=O)NC1CCCCC1)N(C(=O)Cn1cncn1)c1cccc(F)c1 (racemic)
3 | 0.29 | Cc1ccccc1C(C(=O)NC1CCC1)N(C(=O)Cc1cccs1)c1cccc(F)c1 (racemic)
4 | 0.86 | Cc1ccccc1C(C(=O)NC(C)(C)C)N(C(=O)Cc1cccs1)c1cccc(F)c1 (racemic)
5 | 2.88 | Cc1ccccc1C(C(=O)NC1CC1)N(C(=O)Cc1cccs1)c1cccc(F)c1 (racemic)
6 | 0.57 | Cc1ccccc1NC(=O)C(c1ccccc1C)N(C(=O)Cc1cccs1)c1cccc(F)c1 (racemic)
7 | 1.8 | Cc1ccccc1C(C(=O)NCc1ccccc1)N(C(=O)Cc1cccs1)c1cccc(F)c1 (racemic)
8 | 0.64 | Cc1ccccc1C(C(=O)NC1CCOCC1)N(C(=O)Cc1cccs1)c1cccc(F)c1 (racemic)
9 | 53.1 | Cc1ccccc1C(C(=O)NC1CCNCC1)N(C(=O)Cc1cccs1)c1cccc(F)c1 (racemic)
10 | 1.1 | Cc1ccccc1C(C(=O)NC1CCCCC1)N(C(=O)Cc1cncnc1)c1cccc(F)c1 (racemic)
11 | 0.9 | Cc1ccccc1C(C(=O)NC1CCCCC1)N(C(=O)CCl)c1cccc(F)c1 (racemic)
12 | 7.8 | Cc1ccccc1C(C(=O)NC1CCCCC1)N(C(=O)CN)c1cccc(F)c1 (racemic)
13 | 0.19 | Cc1ccccc1C(C(=O)NC1CCCCC1)N(C(=O)CNC1CC1)c1cccc(F)c1 (racemic)
14 | 0.45 | Cc1ccccc1C(C(=O)NC1CCCCC1)N(C(=O)CNC1CCCC1)c1cccc(F)c1 (racemic)
15 | 1.4 | CC(C(=O)NC1CCCCC1)(c1ccccc1)N(C(=O)Cc1cccs1)c1cccc(F)c1 (racemic)
16 | 3.6 | CN(C(=O)C(c1ccccc1)N(C(=O)Cc1cccs1)c1cccc(F)c1)C1CCCCC1 (racemic)
17 | > 100 | Cc1ccccc1C(CNC1CCCCC1)N(C(=O)Cc1cccs1)c1cccc(F)c1 (racemic)
18 | > 100 | Cc1ccccc1C(C(=O)NC1CCCCC1)N(CCc1cccs1)c1cccc(F)c1 (racemic)
